Like-named read-outs stand apart in the source and are kept apart here.
Assay: Comparison of water solubilities of haptens, modified haptens and gentamicin reaction products
Assay type: physicochemical
Description: In der Tabelle III werden die Wasserlöslichkeiten der Haptene Phenobarbital und Diphenylhydantoin in unveränderter Form, in modifizierter Form (carboxyliert bzw. aminiert) und in der sogenannten konjugierten Form, nämlich als Umsetzungsprodukt mit Gentamicin gegenübergestellt. Hieraus ergibt sich, daß die Haptene in unveränderter und in modifizierter Form hydrophob sind (Die Unlöslichkeit in Wasser ist ein Maß für die Hydrophobie einer Verbindung). Mit steigender Unlöslichkeit der Verbindungen in Wasser steigt die Hydrophobie und die Wahrscheinlichkeit, daß sie an die Oberfläche gebunden werden, wobei durch die unspezifischen Bindungen große Ungenauigkeiten in der Immunofluoreszenz-Bestimmungsmethode verursacht werden. Wie aus der Tabelle III weiterhin ersichtlich, erhält man ein lösliches, d.h. hydrophiles Produkt, wenn man ein hydrophobes Hapten wie Phenobarbital oder Diphenylhydantoin mit einer hydrophilen Verbindung wie Gentamicin verbindet. Derartige Produkte werden nicht als solche an die feste Oberfläche gebunden.

With `O=C1NC(=O)C(c2ccccc2)(c2ccccc2)N1` [Diphenyl-hydantoin, Diphenylhydantoin] the Wasserlöslichkeiten was “unlöslich”.

With `CCC1(c2ccccc2)C(=O)NC(=O)NC1=O` [Phenobar-bital, Phenobarbital] the Wasserlöslichkeiten (in water, insolubility is taken as a measure of hydrophobicity) was “unlöslich”.
